Measurements reported in patent US11643430B2, “Porphyrin compound or salt thereof, cancer therapeutic agent, photosensitizer, and fluorescent probe” (M.T.3, Inc., priority 2020, dated 2023).

Assays:
[1] = Fluorescence quantum yield, absolute PL quantum yield spectrometer; type: physicochemical
Protocol: (§1) Next, the fluorescence quantum yields (Φf) and fluorescence lifetimes (τf) of the compounds were measured. Moreover, the quantum yields (ΦΔ) of singlet oxygen generated from the compounds of Structural Formulae (IIa) and (III) were measured.

[2] = Fluorescence lifetime from fluorescence decay curves; type: physicochemical; settings: monoexponential curve fitting, deconvolution method
Protocol: as §1
Each of the fluorescence decay curves was subjected to curve fitting with a monoexponential function using a deconvolution method, and thus τf was determined.

[3] = standard for determination of ΦΔ; cited from earlier work
[4] = Quantum yield of singlet oxygen by 1270 nm phosphorescence; type: physicochemical; settings: in ethanol, absorbance 0.1, irradiated at 355 nm, phosphorescence at 1270 nm, TPPS standard; sodium salt
Protocol: as §1
Next, the measurement of ΦΔ will be described. First, the compounds of Structural Formula (IIa) and (III) were each dissolved in ethanol at such a concentration that gave an absorbance of 0.1, and then were irradiated with light at 355 nm using Nd^3+:YAG LASER (LS-2137U, manufactured by Lotis TII). Next, singlet oxygen was measured using a self-produced infrared emission measurement apparatus in which a near-infrared photomultiplier tube (R5509-42, manufactured by Hamamatsu Photonics K.K.) is used. It should be noted that singlet oxygen was measured 17 times, and the average value was shown as a phosphorescence spectrum in FIG. 4. Singlet oxygen emits phosphorescence at a near-infrared wavelength 1270 nm. Therefore, in this specification, ΦΔ was determined by measuring the intensity of such phosphorescence. TPPS (ΦΔ=0.63) was used as a standard substance for determination of ΦΔ. ΦΔ of the compound of Structural Formula (IIa) and ΦΔ of the compound of Structural Formula (III) were determined as 0.57 and 0.53, respectively.

Human-derived A549 cells = assay: Efficiency of uptake by cancer cells; type: cell-based; settings: 3 μM, 12 hours incubation, fluorescence ex 418 nm / em 646 nm
Source text: The compound of Structural Formula (III) to which a sulfur-containing sugar-chain is linked is more likely to accumulate in tumor. Regarding such an improvement in the accumulation, the following describes the evaluation of the efficiency of uptake of the compounds of structural Formulae (IIa) and (III) by cancer cells.
Human-derived A549 cells were used as cancer cells. Dulbecco's Modified Eagle Medium (DMEM) supplemented with 10% Fetal Bovine Serum (FBS: manufactured by EQUITECH-BIO, INC.) and 1% Penicillin Streptomycin Glutamine (Invitrogen (trademark)) was used as a culture medium, which will be described later. Phosphate buffered saline (PBS) was used as a cell washing solution, and PBS containing 0.05% trypsin and 0.02% EDTA was used as a cell detaching solution. A circular plastic petri dish (Greiner Bio-one, 628160) with a diameter of 6 cm was used as a culture container.
First, an A549 cell suspension was cultured on a culture medium. 100 μL of the cell suspension was added to each well of a black 96-well plate and cultured at 37° C. in a 5% CO2 atmosphere for a day. […] Furthermore, the concentrations of the photosensitizing agents inside the cells were quantified using a fluorescence micro plate reader (Infinite M200 Pro, manufactured by TECAN). For the fluorescence observation, the excitation wavelength was 418 nm, and the observation wavelength was 646 nm. […]

Molecule | fluorescence quantum yield (Φf) [1] | fluorescence lifetime (τf) [2] | quantum yield of singlet oxygen (ΦΔ) of standard substance [3] | quantum yield of singlet oxygen (ΦΔ) [4] | relative uptake efficiency versus compound of Structural Formula (III) (Human-derived A549 cells) [times]
COC(=O)c1cc(-c2c3nc(c(-c4cc(C(=O)OC)cc([Si](C)(C)C)c4)c4ccc([nH]4)c(-c4cc(C(=O)OC)cc([Si](C)(C)C)c4)c4nc(c(-c5cc(C(=O)NCCCO[C@H]6O[C@H](CO)[C@@H](O)[C@H](O)[C@H]6O)cc([Si](C)(C)C)c5)c5ccc2[nH]5)C=C4)C=C3)cc([Si](C)(C)C)c1 [IId, 3-trimethylsilyl-1-benzenecarboxyamide,N-[3-n-propyl-α-D-glucopyranoside]-5-[10,15,20-tris(3-methoxycarbonyl-5-trimethylsilylphenyl)porphyrin]] | 0.056 | 9.3 | – | – | –
O=S(=O)(O)c1ccc(-c2c3nc(c(-c4ccc(S(=O)(=O)O)cc4)c4ccc([nH]4)c(-c4ccc(S(=O)(=O)O)cc4)c4nc(c(-c5ccc(S(=O)(=O)O)cc5)c5ccc2[nH]5)C=C4)C=C3)cc1 [TPPS] | – | – | 0.63 | – | –
3-trimethylsilyl-1-benzenecarboxyamide,N-[3-n-propyl-α-D-quinovopyranoside]-5-[10,15,20-tris(3-methoxycarbonyl-5-trimethylsilylphenyl)porphyrin] sodium salt [IIa] | 0.063 | 9.2 | – | 0.53 | 1.8
